Source: PubChem BioAssay (NCI)
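Results reflect a 48-hour exposure of cells in 96-well plates to compound at five concentrations. Definition used: TGI = concentration required for complete inhibition of growth.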

Experiments:
Assay in all cases: DTP human tumour cell line panel, 48 h
OVCAR-8 ovarian = tested on: OVCAR-8 ovarian
MDA-MB-435 = tested on: MDA-MB-435
DU-145 prostate = tested on: DU-145 prostate
SF-295 CNS = tested on: SF-295 CNS
SF-539 CNS = tested on: SF-539 CNS
BT-549 breast = tested on: BT-549 breast
SNB-19 CNS = tested on: SNB-19 CNS
UO-31 renal = tested on: UO-31 renal
RXF 393 renal = tested on: RXF 393 renal
COLO 205 colon = tested on: COLO 205 colon
MDA-N = tested on: MDA-N
HOP-92 NSCLC = tested on: HOP-92 NSCLC
EKVX NSCLC = tested on: EKVX NSCLC
MCF7 breast = tested on: MCF7 breast
IGROV1 ovarian = tested on: IGROV1 ovarian
SK-MEL-2 melanoma = tested on: SK-MEL-2 melanoma
PC-3 prostate = tested on: PC-3 prostate
LOX IMVI melanoma = tested on: LOX IMVI melanoma
NCI-H460 lung = tested on: NCI-H460 lung
A549 NSCLC = tested on: A549 NSCLC
T-47D breast = tested on: T-47D breast
HCT-116 colon = tested on: HCT-116 colon
NCI-H522 lung = tested on: NCI-H522 lung
HOP-62 NSCLC = tested on: HOP-62 NSCLC
OVCAR-4 ovarian = tested on: OVCAR-4 ovarian
SW-620 colon = tested on: SW-620 colon
K-562 leukemia = tested on: K-562 leukemia
OVCAR-3 ovarian = tested on: OVCAR-3 ovarian
SNB-75 CNS = tested on: SNB-75 CNS
SF-268 CNS = tested on: SF-268 CNS
ACHN renal = tested on: ACHN renal
NCI-H226 lung = tested on: NCI-H226 lung
CAKI-1 renal = tested on: CAKI-1 renal
OVCAR-5 ovarian = tested on: OVCAR-5 ovarian
SN12C renal = tested on: SN12C renal
CCRF-CEM leukemia = tested on: CCRF-CEM leukemia
HL-60(TB) leukemia = tested on: HL-60(TB) leukemia
UACC-257 melanoma = tested on: UACC-257 melanoma
SK-MEL-28 melanoma = tested on: SK-MEL-28 melanoma
HCT-15 colon = tested on: HCT-15 colon
U251 CNS = tested on: U251 CNS
MDA-MB-231 breast = tested on: MDA-MB-231 breast
786-0 renal = tested on: 786-0 renal
TK-10 renal = tested on: TK-10 renal
NCI/ADR-RES ovarian = tested on: NCI/ADR-RES ovarian
HT29 colon = tested on: HT29 colon
SK-MEL-5 melanoma = tested on: SK-MEL-5 melanoma
M14 melanoma = tested on: M14 melanoma
UACC-62 melanoma = tested on: UACC-62 melanoma
KM12 colon = tested on: KM12 colon
SK-OV-3 ovarian = tested on: SK-OV-3 ovarian
RPMI-8226 leukemia = tested on: RPMI-8226 leukemia
HCC-2998 colon = tested on: HCC-2998 colon
A498 renal = tested on: A498 renal
HS 578T breast = tested on: HS 578T breast
MALME-3M melanoma = tested on: MALME-3M melanoma
NCI-H23 lung = tested on: NCI-H23 lung
MOLT-4 leukemia = tested on: MOLT-4 leukemia

COc1cc(O)c(/C=N/N=C(\N)NO)c(OC)c1
TGI (OVCAR-8 ovarian): > 10 µM | TGI (MDA-MB-435): > 10 µM | TGI (DU-145 prostate): > 10 µM | TGI (SF-295 CNS): > 10 µM | TGI (SF-539 CNS): > 10 µM | TGI (BT-549 breast): > 10 µM | TGI (SNB-19 CNS): > 10 µM | TGI (UO-31 renal): > 10 µM | TGI (RXF 393 renal): > 10 µM | TGI (COLO 205 colon): > 10 µM | TGI (MDA-N): > 10 µM | TGI (HOP-92 NSCLC): > 10 µM | TGI (EKVX NSCLC): > 10 µM | TGI (MCF7 breast): > 10 µM | TGI (IGROV1 ovarian): > 10 µM | TGI (SK-MEL-2 melanoma): > 10 µM | TGI (PC-3 prostate): > 10 µM | TGI (LOX IMVI melanoma): > 10 µM | TGI (NCI-H460 lung): > 10 µM | TGI (A549 NSCLC): > 10 µM | TGI (T-47D breast): > 10 µM | TGI (HCT-116 colon): > 10 µM | TGI (NCI-H522 lung): > 10 µM | TGI (HOP-62 NSCLC): > 10 µM | TGI (OVCAR-4 ovarian): > 10 µM | TGI (SW-620 colon): > 10 µM | TGI (K-562 leukemia): > 10 µM | TGI (OVCAR-3 ovarian): > 10 µM | TGI (SNB-75 CNS): > 10 µM | TGI (SF-268 CNS): > 10 µM | TGI (ACHN renal): > 10 µM | TGI (NCI-H226 lung): > 10 µM | TGI (CAKI-1 renal): > 10 µM | TGI (OVCAR-5 ovarian): > 10 µM | TGI (SN12C renal): > 10 µM | TGI (CCRF-CEM leukemia): > 10 µM | TGI (HL-60(TB) leukemia): > 10 µM | TGI (UACC-257 melanoma): > 10 µM | TGI (SK-MEL-28 melanoma): > 10 µM | TGI (HCT-15 colon): > 10 µM | TGI (U251 CNS): > 10 µM | TGI (MDA-MB-231 breast): > 10 µM | TGI (786-0 renal): > 10 µM | TGI (TK-10 renal): > 10 µM | TGI (NCI/ADR-RES ovarian): > 10 µM | TGI (HT29 colon): > 10 µM | TGI (SK-MEL-5 melanoma): > 10 µM | TGI (M14 melanoma): > 10 µM | TGI (UACC-62 melanoma): > 10 µM | TGI (KM12 colon): > 10 µM | TGI (SK-OV-3 ovarian): > 10 µM | TGI (RPMI-8226 leukemia): > 10 µM | TGI (HCC-2998 colon): > 10 µM | TGI (A498 renal): > 10 µM | TGI (HS 578T breast): > 10 µM | TGI (MALME-3M melanoma): > 10 µM | TGI (NCI-H23 lung): > 10 µM

NCC1CCN(c2nc3ccccc3c3c2CCCC3)CC1
TGI (OVCAR-8 ovarian): 42.9 µM | TGI (MDA-MB-435): 7.13 µM | TGI (DU-145 prostate): 25.9 µM | TGI (SF-295 CNS): 26.7 µM | TGI (SF-539 CNS): 11.3 µM | TGI (BT-549 breast): 28 µM | TGI (SNB-19 CNS): 24.3 µM | TGI (UO-31 renal): 11.9 µM | TGI (RXF 393 renal): 11.7 µM | TGI (COLO 205 colon): 3.13 µM | TGI (MDA-N): 7.92 µM | TGI (HOP-92 NSCLC): 24.1 µM | TGI (EKVX NSCLC): 27.7 µM | TGI (MCF7 breast): 15 µM | TGI (IGROV1 ovarian): 24.5 µM | TGI (SK-MEL-2 melanoma): 11.3 µM | TGI (PC-3 prostate): 22.5 µM | TGI (LOX IMVI melanoma): 16 µM | TGI (NCI-H460 lung): 17.6 µM | TGI (A549 NSCLC): 24.9 µM | TGI (T-47D breast): 8.81 µM | TGI (HCT-116 colon): 9.91 µM | TGI (NCI-H522 lung): 19.8 µM | TGI (HOP-62 NSCLC): 32.1 µM | TGI (OVCAR-4 ovarian): 23.2 µM | TGI (SW-620 colon): 9.34 µM | TGI (K-562 leukemia): 8.07 µM | TGI (OVCAR-3 ovarian): 24.9 µM | TGI (SNB-75 CNS): 22.2 µM | TGI (SF-268 CNS): 22.7 µM | TGI (ACHN renal): 25.3 µM | TGI (NCI-H226 lung): 34.1 µM | TGI (CAKI-1 renal): 21.4 µM | TGI (OVCAR-5 ovarian): 24.7 µM | TGI (SN12C renal): 22.4 µM | TGI (CCRF-CEM leukemia): 14.2 µM | TGI (HL-60(TB) leukemia): 8.13 µM | TGI (UACC-257 melanoma): 6.84 µM | TGI (SK-MEL-28 melanoma): 12 µM | TGI (HCT-15 colon): 14.9 µM | TGI (U251 CNS): 16.2 µM | TGI (MDA-MB-231 breast): 17.2 µM | TGI (786-0 renal): 12.3 µM | TGI (TK-10 renal): 25.9 µM | TGI (NCI/ADR-RES ovarian): 32.3 µM | TGI (HT29 colon): 6.22 µM | TGI (SK-MEL-5 melanoma): 7.62 µM | TGI (M14 melanoma): 3.71 µM | TGI (UACC-62 melanoma): 4.96 µM | TGI (MOLT-4 leukemia): 11.7 µM | TGI (KM12 colon): 15.9 µM | TGI (SK-OV-3 ovarian): 29.6 µM | TGI (RPMI-8226 leukemia): 6.3 µM | TGI (HCC-2998 colon): 3.46 µM | TGI (A498 renal): 25.7 µM | TGI (HS 578T breast): > 100 µM | TGI (MALME-3M melanoma): 26 µM | TGI (NCI-H23 lung): 30.1 µM
